Assay results: patent US10881642B2, “Autophagy enhancer and use thereof” (Industry-Academic Cooperation Foundation, Yonsei University, priority 2016, dated 2021)
Marks after values point to notes of the source that are not given here.

What was measured:
[1] = Liver microsomal stability; type: in vitro ADME; conditions: 30 min incubation with human liver microsome, 10 μM
ob/ob mice = assay: Toxicity: hemogram, blood chemistry and organ biopsy in ob/ob mice; type: in vivo; set-up: BUN: unit not given here; conditions: for level of liver enzymes: 8-week treatment; for CBC / fatty liver (major organ biopsy) / tissue histology of major organs (heart, kidney, muscle, spleen, lung, pancreas): 8 weeks; for tissue histology of major organs (heart, kidney, muscle, spleen, lung, pancreas): biopsy; for ALB / ALP / ALT / AST / BUN / CA / CPK / CRE / DBIL / GGT / LDH / TCHO / TG: blood chemistry; for BASO / EOS / MONO / NEU / LYM / WBC / RBC / HGB / HCT / PLT: hemogram; for BASO / EOS: normal range 0.0-0.2; for MONO: normal range 0.0-0.4; for NEU: normal range 0.1-2.4; for LYM: normal range 0.9-9.3; for WBC: normal range 1.8-10.7; for RBC: normal range 6.36-9.42; for HGB: normal range 11.0-15.1; for HCT: normal range 38.5-59.0; for PLT: normal range 592-2972
Experimental: Organs were harvested from ob/ob mice administered with MSL or MSL-7 for 8 weeks and stained with H&E for histological analysis. […] Other than that, no significant changes were observed (Scale Bar. 500 μm). […]
Finally, we studied whether MSL or MSL-7 has systemic toxicity. CBC was not changed by MSL or MSL-7 (Table 1).
Finally, in the present disclosure, the toxicity of the present enhancers were tested. The 8-week treatment of MSL or MSL-7 improved the metabolic profile, and reduced the level of liver enzymes (Table 1 below). […] In the major organ biopsy, there were found no side effects. Rather the fatty liver was improved (FIG. 14).
Table 1 indicates the hemogram and blood chemistry analyzed after administration of the present autophagy enhancer for 8 week in vivo. […] Other than that, there are no adverse changes were found.

HFD-fed C57BL/6 mice = assay: Metabolic profile of HFD-fed mice (diet-induced obesity); type: in vivo; conditions: for non-fasting blood glucose level: 50 mg/kg 3 times a week
Experimental: FIG. 12 indicates the improvement of the metabolic profile of HFD-feed mice by MSL-7: (FIG. 12A) Confocal microscopic result of HeLa cells transfected with tandem mRFP-GFP-LC3 and treated with MSL-7 in which red puncta indicates autophagolysosome. (FIG. 12B, 12C) 8 week old male C57BL/6 mice were fed with HFD or normal chow diet (NCD) for 8 weeks, and then 50 mg/kg MSL-7 was administered three times a week for 8 weeks. Non-fasting glucose level (FIG. 12B) and body weight (FIG. 12C) were monitored. (FIG. 12D) IPGTT. (FIG. 12E) AUC curve of (FIG. 12D). (FIG. 12F) ITT. (FIG. 12G) AUC curve of (FIG. 12F).
Screening of autophagy enhancer. […] Luciferase assay. Firefly and Renilla luciferase assays were conducted using the Dual-Luciferase Reporter Assay System (Promega) according to the manufacturer's recommendation. In brief, cells were lysed in 1× lysis buffer and subjected to a single round of freezing/thawing. Firefly luciferase was determined after mixing 5 μl of lysate with 25 μl of Luciferase Assay Reagent II. Renilla luciferase was then determined after further addition of 20 ul of Stop&Glo Reagent. Cell culture and media and drugs treatment. HeLa, TFEB-GFP-HeLa, SK-HEP1 (hepatoma cell line) and Hepa1c1c7 (hepatoma cell line) cells were cultured in the following media: (normal) Dulbecco's modified Eagle's medium (DMEM, Sigma-Aldrich) supplemented with 10% FBS and 1% penicillin/streptomycin; (starvation) HBSS media with Ca and Mg supplemented with 10 mM HEPES; Drugs treatment: MSL compound (50-100 μM); Rapamycin ([…]); Torin-1 (1 μM); Bafilomycin (100 nM); Cyclosporin A (10 μM); and FK506 (5 μM). Cells were treated with oleic acid (400 μM) and palmitic acid (400 μM) for 24 h. Where indicated, cells were washed off with HBSS and replaced by DMEM with or without MSL for 16 h. INS-1 cells, a insulinoma cell line of […] were cultured as described previously (Kim et al., 2014 ibid) in the presence or absence of bafilomycin and treated with MSL-7. Lactate dehydrogenase (LDH) assay. Cytotoxicity was determined by the measurement of LDH release in cell culture media using the LDH kit (Roche), according to the protocol from the manufacturer. Transfection and plasmids. Cells were transiently transfected with DNA plasmids 3×FLAG-hTFEB (A Ballabio), FYVE-dsRed (Cantley LC), RFP-LC3 or mRFP-GFP-LC3 using lipofectamine 2000 (Invitrogen) according to the protocol from the manufacturer. INS-1 cells were transfected with prepro-mIAPP-HA or prepro-hIAPP-HA using jetPEIDNA according to the manufacturer's protocol. Imaging and image quantification. Imaging was performed with a ×40 objective on an LSM780 confocal microscope (Zeiss). Image analysis (spot count per cell) was performed using Image J. When indicated, cells were stained for lipid droplets with BODIPY 493/503 (Invitrogen, […], 20 min) according to the manufacturer's methods. Formation of acidic vesicular organelles was quantitated by staining the cells with acridine orange (Invitrogen, 5 ug/ml, 10 min). Antibodies and western blotting. Cells or tissues were solubilized in lysis buffer supplemented with protease and phosphatase inhibitors and protein concentration was measured by the Bradford method. Ten to 30 micrograms were loaded on 4-12% Bis-Tris gel (NUPAGE, Invitrogen) or 8-15% SDS-PAGE, transferred to PVDF membranes and analyzed by western blot using the ECL method (Pierce). The following antibodies were used: LC3 (Novus NB100-2331, 1:1,000), p62 (Progen GP62-C, 1:1,000), b-actin (Santa Cruz sc-47778, 1:5,000), FLAG (Sigma-Aldrich F1804, 1:2,000), 70S6K (Cell Signaling 9202S, 1:1000), p-70S6K (Cell Signaling 9206S, 1:1000), mTOR (Cell Signaling 2983, 1:1000), pmTOR (Cell Signaling 2971S, 1:1000), TFEB (Cell Signaling 4240, 1:1000). Protein levels were quantified by using ImageJ software analysis. RNA extraction, RT and real-time RT-PCR. […]

SMILES	microsomal stability, remaining [1]	level of liver enzymes (ob/ob mice)	CBC (ob/ob mice)	fatty liver (major organ biopsy) (ob/ob mice)	tissue histology of major organs (heart, kidney, muscle, spleen, lung, pancreas) (ob/ob mice)	ALB (ob/ob mice; 8 week) [g/dL]	ALP (ob/ob mice; 8 week)	ALT (ob/ob mice; 8 week)	AST (ob/ob mice; 8 week)	BUN (ob/ob mice; 8 week)	CA (ob/ob mice; 8 week) [mg/dL]	CPK (ob/ob mice; 8 week) [U/L]	CRE (ob/ob mice; 8 week) [mg/dL]	DBIL (ob/ob mice; 8 week) [mg/dL]	GGT (ob/ob mice; 8 week) [U/L]	LDH (ob/ob mice; 8 week)	TCHO (ob/ob mice; 8 week) [mg/dL]	TG (ob/ob mice; 8 week)	BASO (ob/ob mice; 8 week) [K/μL]	EOS (ob/ob mice; 8 week) [K/μL]	also measured
COc1oc(-c2ccccc2Cl)nc1S(=O)(=O)c1ccccc1 [MSL-7, 2-(2-chlorophenyl)-5-methoxy-4-(phenylsulfonyl) oxazole]	90.5%	reduced	not changed	improved	no significant alteration	1.1 ± 1.0	278 ± 26.11^b U/L	146.9 ± 21.59^b U/L	153.8 ± 12.81^b U/L	20 ± 0.89	10.75 ± 0.32	241.3 ± 18.19	1 ± 0	<0.5	<5	810 ± 112.40^c U/L	136.9 ± 9.73	78.6 ± 22.50^b mg/dL	0.01 ± 0.01	0.04 ± 0.01	serum TG level and LDH level compared to MSL (ob/ob mice; 8 week): significantly lower; MONO (ob/ob mice; 8 week): 0.28 ± 0.05 K/μL; NEU (ob/ob mice; 8 week): 1.97 ± 0.16 K/μL; LYM (ob/ob mice; 8 week): 3.97 ± 0.38 K/μL; WBC (ob/ob mice; 8 week): 6.26 ± 0.52 K/μL; RBC (ob/ob mice; 8 week): 9.22 ± 0.12 M/μL; HGB (ob/ob mice; 8 week): 13.60 ± 0.19 g/dL; HCT (ob/ob mice; 8 week): 49.25 ± 0.78%; PLT (ob/ob mice; 8 week): 1031 ± 55 K/μL; non-fasting blood glucose level (HFD-fed C57BL/6 mice; HFD, 8 weeks): significantly reduced; area under the curves (AUCs) of IPGTT and ITT (HFD-fed C57BL/6 mice; HFD, 8 weeks): reduced; body weight (HFD-fed C57BL/6 mice; HFD, 8 weeks): without changing the body weight; glucose tolerance / glucose intolerance (IPGTT) (HFD-fed C57BL/6 mice; HFD, 8 weeks): significantly improved; insulin sensitivity (ITT) (HFD-fed C57BL/6 mice; HFD, 8 weeks): significantly improved; glucose profile of lean or chow-fed mice (HFD-fed C57BL/6 mice; lean or chow-fed mice): does not affect
CSc1oc(-c2ccccc2)nc1S(=O)(=O)c1ccc(F)cc1 [MSL]	less than 10%	reduced	not changed	improved	no significant alteration	1.1 ± 0.10	267 ± 35.02^b U/L	183.7 ± 35.71^b U/L	158.1 ± 16.39^c U/L	21.13 ± 1.38	11.13 ± 0.24	323.8 ± 29.68	0.75 ± 0.14	<0.5	<5	1428 ± 148.90^b U/L	150 ± 12.22	13.9 ± 16.41^a mg/dL	0.05 ± 0.01	0.165 ± 0.06	MONO (ob/ob mice; 8 week): 0.35 ± 0.109 K/μL; NEU (ob/ob mice; 8 week): 2.34 ± 0.51 K/μL; LYM (ob/ob mice; 8 week): 4.73 ± 0.95 K/μL; WBC (ob/ob mice; 8 week): 7.64 ± 1.54 K/μL; RBC (ob/ob mice; 8 week): 8.82 ± 0.54 M/μL; HGB (ob/ob mice; 8 week): 14.30 ± 0.56 g/dL; HCT (ob/ob mice; 8 week): 46.9 ± 2.4%; PLT (ob/ob mice; 8 week): 1081 ± 61 K/μL; non-fasting blood glucose level (HFD-fed C57BL/6 mice; HFD, 8 weeks): reduced non-fasting blood glucose level and glucose intolerance in mice fed high-fat diet (HFD). however, statistical significance was not achieved for most comparisons; glucose tolerance / glucose intolerance (IPGTT) (HFD-fed C57BL/6 mice; HFD, 8 weeks): reduced non-fasting blood glucose level and glucose intolerance in mice fed high-fat diet (HFD). however, statistical significance was not achieved for most comparisons
